Measured values reported in ChEMBL document CHEMBL5523741, “Development of an Orally Bioavailable LCK PROTAC Degrader as a Potential Therapeutic Approach to T-Cell Acute Lymphoblastic Leukemia” (J Med Chem, 2024).
Activity calls are given as the source filed them. The rule behind the calls is not given here.

Key:
[1] = Efflux ratio of apparent permeability across basolateral to apical over apical to basolateral in human Caco-2 cells; assay type: ADME, cell-based
[2] = Cmax in CD-1 mouse at 30 mg/kg, po measured up to 24 hrs; assay type: ADME, organism-based; conditions: in vivo
KOPTK1 [3] = experiment: Downregulation of CISH in human KOPT-K1 cells measured for 6 hrs by tandem mass tag proteomic assay; assay type: functional, cell-based
[4] = Half life in CD-1 mouse at 30 mg/kg, po measured up to 24 hrs; assay type: ADME, organism-based; conditions: in vivo
[5] = Cmax in CD-1 mouse at 3 mg/kg, iv measured up to 24 hrs; assay type: ADME, organism-based; conditions: in vivo
Mus musculus [6] = experiment: In-vivo PROTAC activity at LCK/CRBN in NOD Cg-Prkdc scid Il2rg tmIWjl (NSG) mouse model assessed as reduction in LCK level in Bone marrow at 30 mg/kg, po measured for 6 hrs by Western blot analysis; assay type: functional; design: scale not given: the % may be the effect or the level left
[7] = Clearance in CD-1 mouse at 3 mg/kg, iv measured up to 24 hrs; assay type: ADME, organism-based; conditions: in vivo
KOPTK1 [8] = experiment: Downregulation of EPHB1 in human KOPT-K1 cells measured for 6 hrs by tandem mass tag proteomic assay; assay type: functional, cell-based
[9] = Half life in CD-1 mouse at 3 mg/kg, iv measured up to 24 hrs; assay type: ADME, organism-based; conditions: in vivo
KOPTK1 [10] = experiment: Downregulation of GSPT1 in human KOPT-K1 cells measured for 6 hrs by tandem mass tag proteomic assay; assay type: functional, cell-based
[11] = Clearance in CD-1 mouse at 30 mg/kg, po measured up to 24 hrs; assay type: ADME, organism-based; conditions: in vivo
[12] = target: T1, Protein cereblon/Tyrosine-protein kinase Lck (Homo sapiens, UniProt P06239+Q96SW2); experiment: PROTAC activity at HiBit-tagged LCK/CRBN in human KOPT-K1 cells assessed as induction of LCK degradation incubated for 6 hrs by Nano-Glo HiBiT assay; assay type: cell-based
Target sequence in this assay (P06239 whole entry): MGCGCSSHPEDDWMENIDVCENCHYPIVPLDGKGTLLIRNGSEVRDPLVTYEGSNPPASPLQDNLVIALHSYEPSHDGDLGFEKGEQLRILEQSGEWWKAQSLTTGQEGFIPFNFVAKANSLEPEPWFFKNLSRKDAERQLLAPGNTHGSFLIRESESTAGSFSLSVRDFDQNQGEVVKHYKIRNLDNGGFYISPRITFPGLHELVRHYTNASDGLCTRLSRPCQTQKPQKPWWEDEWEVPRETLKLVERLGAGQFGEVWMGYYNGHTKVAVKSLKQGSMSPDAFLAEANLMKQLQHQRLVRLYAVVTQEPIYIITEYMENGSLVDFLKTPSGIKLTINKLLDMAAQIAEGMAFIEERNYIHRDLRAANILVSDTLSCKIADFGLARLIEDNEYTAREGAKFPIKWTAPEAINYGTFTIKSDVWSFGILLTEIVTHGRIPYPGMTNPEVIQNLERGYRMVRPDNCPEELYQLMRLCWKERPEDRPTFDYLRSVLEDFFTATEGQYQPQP
Target sequence in this assay (Q96SW2 whole entry): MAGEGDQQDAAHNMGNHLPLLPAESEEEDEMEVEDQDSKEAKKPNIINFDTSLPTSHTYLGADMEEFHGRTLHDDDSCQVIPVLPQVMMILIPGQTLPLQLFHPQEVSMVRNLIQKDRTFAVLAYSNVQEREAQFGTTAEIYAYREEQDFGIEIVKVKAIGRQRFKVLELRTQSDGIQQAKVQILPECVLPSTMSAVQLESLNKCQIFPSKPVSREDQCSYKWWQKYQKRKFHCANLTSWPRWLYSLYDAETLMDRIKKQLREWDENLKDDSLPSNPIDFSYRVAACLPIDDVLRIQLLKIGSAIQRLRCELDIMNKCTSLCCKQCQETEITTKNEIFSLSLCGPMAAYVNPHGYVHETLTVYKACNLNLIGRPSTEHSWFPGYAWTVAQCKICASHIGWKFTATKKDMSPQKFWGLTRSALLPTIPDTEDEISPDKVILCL

KOPTK1 [13] = experiment: Antiproliferative activity against human KOPT-K1 cells assessed as effect on cell viability measured for 72 hrs by celltiter glo assay; assay type: functional; conditions: read-out: LC50 (the source's name)
[14] = Apparent permeability of compound across basolateral to apical side in human Caco-2 cells; assay type: ADME, cell-based
KOPTK1 [15] = experiment: Downregulation of YES1 in human KOPT-K1 cells measured for 6 hrs by tandem mass tag proteomic assay; assay type: functional, cell-based
KOPTK1 [16] = experiment: Downregulation of IKZF1 in human KOPT-K1 cells measured for 6 hrs by tandem mass tag proteomic assay; assay type: functional, cell-based
[17] = Volume of distribution at steady state in CD-1 mouse at 3 mg/kg, iv measured up to 24 hrs; assay type: ADME, organism-based; conditions: in vivo, read-out: Vdss
[18] = Oral bioavailability in CD-1 mouse at 30 mg/kg measured up to 24 hrs; assay type: ADME, organism-based; conditions: in vivo
KOPTK1 [19] = experiment: Downregulation of GAK in human KOPT-K1 cells measured for 6 hrs by tandem mass tag proteomic assay; assay type: functional, cell-based
[20] = Drug concentration in CD-1 mouse plasma at 30 mg/kg, po measured after 4 hrs by UPLC-MS/MS analysis; assay type: ADME, organism-based
Mus musculus [21] = experiment: In-vivo PROTAC activity at LCK/CRBN in NOD Cg-Prkdc scid Il2rg tmIWjl (NSG) mouse model assessed as reduction in LCK level in Bone marrow at 30 mg/kg, po measured for 24 hrs by Western blot analysis; assay type: functional; design: scale not given: the % may be the effect or the level left
KOPTK1 [22] = experiment: Antiproliferative activity against human KOPT-K1 cells assessed as inhibition of cell growth at 100 nM measured for 280 hrs by celltiter glo assay; assay type: functional, cell-based
[23] = target: T1, Protein cereblon/Tyrosine-protein kinase Lck; experiment: PROTAC activity at HiBit-tagged LCK/CRBN in human KOPT-K1 cells assessed as induction of LCK degradation at 0.1 to 1000 nM incubated for 6 hrs by Western blot analysis relative to control; assay type: cell-based; conditions: dose 0.1-1000 nM
Target sequence in this assay (P06239 2-509 limits assumed): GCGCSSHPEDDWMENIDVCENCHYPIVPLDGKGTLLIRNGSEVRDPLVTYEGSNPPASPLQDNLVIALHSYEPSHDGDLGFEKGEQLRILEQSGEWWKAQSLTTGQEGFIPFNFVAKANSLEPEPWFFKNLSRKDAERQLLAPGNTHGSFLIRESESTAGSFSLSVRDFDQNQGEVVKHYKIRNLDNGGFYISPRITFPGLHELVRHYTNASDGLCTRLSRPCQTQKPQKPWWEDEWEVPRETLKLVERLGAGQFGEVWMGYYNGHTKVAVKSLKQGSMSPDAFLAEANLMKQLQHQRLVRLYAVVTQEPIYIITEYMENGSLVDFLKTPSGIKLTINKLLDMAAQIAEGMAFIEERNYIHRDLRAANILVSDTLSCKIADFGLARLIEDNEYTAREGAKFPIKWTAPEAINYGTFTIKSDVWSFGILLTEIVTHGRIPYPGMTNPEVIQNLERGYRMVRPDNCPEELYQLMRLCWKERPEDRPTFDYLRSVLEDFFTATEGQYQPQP
Target sequence in this assay (Q96SW2 whole entry partner): as the sequence (Q96SW2 whole entry) above

[24] = target: T1, Protein cereblon/Tyrosine-protein kinase Lck; experiment: PROTAC activity at HiBit-tagged LCK/CRBN in human KOPT-K1 cells assessed as induction of LCK degradation incubated for 6 hrs by Western blot analysis; assay type: cell-based
Target sequence in this assay (P06239 whole entry): as the sequence (P06239 whole entry) above
Target sequence in this assay (Q96SW2 whole entry): as the sequence (Q96SW2 whole entry) above

[25] = Volume of distribution at steady state in CD-1 mouse at 30 mg/kg, po measured up to 24 hrs; assay type: ADME, organism-based; conditions: in vivo
KOPTK1 [26] = experiment: Downregulation of IKZF3 in human KOPT-K1 cells measured for 6 hrs by tandem mass tag proteomic assay; assay type: functional, cell-based
[27] = target: T1, Protein cereblon/Tyrosine-protein kinase Lck; experiment: PROTAC activity at HiBit-tagged LCK/CRBN in human KOPT-K1 cells assessed as induction of LCK degradation incubated for 6 hrs by Nano-Glo HiBiT assay relative to control; assay type: cell-based
Target sequence in this assay (P06239 2-509 limits assumed): as the sequence (P06239 2-509 limits assumed) above
Target sequence in this assay (Q96SW2 whole entry partner): as the sequence (Q96SW2 whole entry) above

[28] = Metabolic stability in mouse liver microsomes assessed as half life in presence of NADPH by UPLC-MS/MS analysis; assay type: ADME, Microsome
[29] = AUClast in CD-1 mouse at 3 mg/kg, iv measured up to 24 hrs; assay type: ADME, organism-based; conditions: in vivo
KOPTK1 [30] = experiment: Downregulation of CSK in human KOPT-K1 cells measured for 6 hrs by tandem mass tag proteomic assay; assay type: functional, cell-based
[31] = Stability in CD-1 mouse plasma assessed as half life; assay type: ADME, cell-free
KOPTK1 [32] = experiment: Antiproliferative activity against human KOPT-K1 cells assessed as inhibition of cell growth at 100 nM measured for 18 hrs by celltiter glo assay; assay type: functional, cell-based
[33] = AUClast in CD-1 mouse at 30 mg/kg, po measured up to 24 hrs; assay type: ADME, organism-based; conditions: in vivo
[34] = Apparent permeability of compound across apical to basolateral side in human Caco-2 cells; assay type: ADME, cell-based
KOPTK1 [35] = experiment: Downregulation of SIK2 in human KOPT-K1 cells measured for 6 hrs by tandem mass tag proteomic assay; assay type: functional, cell-based
[36] = Tmax in CD-1 mouse at 30 mg/kg, po measured up to 24 hrs; assay type: ADME, organism-based; conditions: in vivo
KOPTK1 [37] = experiment: Downregulation of CK1alpha in human KOPT-K1 cells measured for 6 hrs by tandem mass tag proteomic assay; assay type: functional, cell-based
[38] = target: T1, Protein cereblon/Tyrosine-protein kinase Lck; experiment: PROTAC activity at HiBit-tagged LCK/CRBN in human KOPT-K1 cells assessed as reduction in LCK level at 0.1 to 1000 nM incubated for 6 hrs immunoblotting analysis; assay type: cell-based; conditions: dose 0.1-1000 nM
Target sequence in this assay (P06239 2-509 limits assumed): as the sequence (P06239 2-509 limits assumed) above
Target sequence in this assay (Q96SW2 whole entry partner): as the sequence (Q96SW2 whole entry) above

Cc1nc(Nc2ncc(C(=O)Nc3c(C)cccc3Cl)s2)cc(N2CCC(CN3CCN(c4ccc(C5CCC(=O)NC5=O)cc4)CC3)CC2)n1 (stereo not drawn)
efflux ratio [1]: 3.75 | Cmax [2]: 2240 ng/mL | Activity (KOPTK1 [3]): Active | half-life [4]: 3.05 h | Cmax [5]: 1450 ng/mL | Activity (Mus musculus [6]): 10% | clearance [7]: 14 mL/min/kg | Activity (KOPTK1 [8]): Active | half-life [9]: 3.51 h | Activity (KOPTK1 [10]): inactive | CL/F [11]: 24 mL/min/kg | DC50 [12]: 17.5 nM | CC50 (KOPTK1 [13]): 20.1 nM | Papp B→A [14]: 1.13 ×10⁻⁶ cm/s | Activity (KOPTK1 [15]): inactive | Activity (KOPTK1 [16]): inactive | Vd [17]: 3.51 L/kg | bioavailability [18]: 58% | Activity (KOPTK1 [19]): inactive | concentration at 4 h [20]: 3290 ng/mL | Activity (Mus musculus [21]): 5% | Activity (KOPTK1 [22]): Active | Emax [23]: 98% | DC50 [24]: 1.21 nM | Vdss [25]: 6.34 L/kg | Activity (KOPTK1 [26]): inactive | Emax [27]: 77% | half-life [28]: 2 h | AUC(0-t) at 24 h [29]: 3560 ng·h/mL | Activity (KOPTK1 [30]): Active | half-life [31]: 45.2 h | Activity (KOPTK1 [32]): Active | AUC(0-t) at 24 h [33]: 20700 ng·h/mL | Papp A→B [34]: 0.302 ×10⁻⁶ cm/s | Activity (KOPTK1 [35]): inactive | Tmax [36]: 1 h | Activity (KOPTK1 [37]): inactive | Activity [38]: Active
